Laboratory results from ChEMBL document CHEMBL1201862, “PubChem BioAssay data set” (2004).
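1) Cells in 96-well plates. 2) Compound, 48 h, 5 concentrations. 3) Linear interpolation between surrounding doses. 4) Unreached endpoint = highest concentration. GI50 is the concentration that inhibits growth by half.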 The source made the active and inactive calls. Rule as the data show it: active = GI50 up to about 1.1 µM and inactive = higher.

Columns and labels:
Assay in all cases: NCI anticancer screen, dose series, 48 h
ACHN = system: ACHN
HCC 2998 = system: HCC 2998
IGROV-1 = system: IGROV-1
KM12 = system: KM12
LOX IMVI = system: LOX IMVI
M14 = system: M14
Malme-3M = system: Malme-3M
NCI-H460 = system: NCI-H460
NCI-H522 = system: NCI-H522
OVCAR-8 = system: OVCAR-8
RXF 393 = system: RXF 393
UACC-257 = system: UACC-257
UACC-62 = system: UACC-62
CCRF-CEM = system: CCRF-CEM

Structure (SMILES)	GI50 (ACHN)	GI50 (HCC 2998)	GI50 (IGROV-1)	GI50 (KM12)	GI50 (LOX IMVI)	GI50 (M14)	GI50 (Malme-3M)	GI50 (NCI-H460)	GI50 (NCI-H522)	GI50 (OVCAR-8)	GI50 (RXF 393)	GI50 (UACC-257)	GI50 (UACC-62)	GI50 (CCRF-CEM)
COc1cc(/C=C2/C(=O)N(C(=O)OCc3ccccc3)C(Cc3cc(OC)c(OC)c(C)c3OC)C(=O)N2Cc2ccccc2)c(OC)c(C)c1OC (centres undefined)	> 100 µM (inactive)	> 100 µM (inactive)	> 100 µM (inactive)	> 100 µM (inactive)	> 100 µM (inactive)	> 100 µM (inactive)	76.4 µM (inactive)	3.52 µM (inactive)	11 µM (inactive)	> 100 µM (inactive)	> 100 µM (inactive)	9.48 µM (inactive)	> 100 µM (inactive)	–
CS/C(=N/C(=O)c1ccccc1)SCCS/C(=N\C(=O)c1ccccc1)SC	> 100 µM (inactive)	> 100 µM (inactive)	> 100 µM (inactive)	> 100 µM (inactive)	> 100 µM (inactive)	> 100 µM (inactive)	> 100 µM (inactive)	> 100 µM (inactive)	69.2 µM (inactive)	> 100 µM (inactive)	73.6 µM (inactive)	> 100 µM (inactive)	> 100 µM (inactive)	> 100 µM (inactive)
C=CCNC(=O)ON1C(=O)CCC1=O	> 100 µM (inactive)	> 100 µM (inactive)	> 100 µM (inactive)	> 100 µM (inactive)	> 100 µM (inactive)	> 100 µM (inactive)	> 100 µM (inactive)	> 100 µM (inactive)	31.8 µM (inactive)	> 100 µM (inactive)	> 100 µM (inactive)	> 100 µM (inactive)	> 100 µM (inactive)	> 100 µM (inactive)
COc1ccc(C(=O)O/N=C2/CCC/C2=C\c2ccccc2)cc1	> 94.8 µM (inactive)	> 100 µM (inactive)	> 73.6 µM (inactive)	> 100 µM (inactive)	> 100 µM (inactive)	> 100 µM (inactive)	> 100 µM (inactive)	> 100 µM (inactive)	97.3 µM (inactive)	> 100 µM (inactive)	> 83 µM (inactive)	> 100 µM (inactive)	> 100 µM (inactive)	> 100 µM (inactive)
O=C1CCCCC1CN1CCCC1 (centres undefined)	> 100 µM (inactive)	> 100 µM (inactive)	> 100 µM (inactive)	> 100 µM (inactive)	> 100 µM (inactive)	> 100 µM (inactive)	> 10 µM (inactive)	> 100 µM (inactive)	0.178 µM (active)	> 100 µM (inactive)	–	> 100 µM (inactive)	–	65.6 µM (inactive)
CC(=O)O[C@H]1CCC2[C@@H]3CCC4C(=O)c5oncc5C[C@]4(C)C3CC[C@@]21C (some centres undefined)	63 µM (inactive)	> 100 µM (inactive)	> 100 µM (inactive)	> 100 µM (inactive)	28 µM (inactive)	> 100 µM (inactive)	> 100 µM (inactive)	> 100 µM (inactive)	–	> 100 µM (inactive)	> 100 µM (inactive)	> 100 µM (inactive)	60.3 µM (inactive)	> 100 µM (inactive)
Cc1ccc(Sc2cc([N+](=O)[O-])cc(Sc3ccc(C)cc3)c2Sc2ccc(C)cc2)cc1	> 100 µM (inactive)	> 100 µM (inactive)	> 100 µM (inactive)	> 100 µM (inactive)	> 100 µM (inactive)	> 100 µM (inactive)	> 100 µM (inactive)	> 100 µM (inactive)	–	74.6 µM (inactive)	36 µM (inactive)	> 100 µM (inactive)	> 100 µM (inactive)	27.2 µM (inactive)
COC(=O)C1=C(SC)SC2(C(=O)OC)C3C=C(C)C4C(N13)C42C(=O)OC (centres undefined)	> 100 µM (inactive)	> 100 µM (inactive)	> 100 µM (inactive)	–	> 100 µM (inactive)	> 100 µM (inactive)	> 100 µM (inactive)	> 100 µM (inactive)	> 100 µM (inactive)	> 100 µM (inactive)	> 100 µM (inactive)	> 100 µM (inactive)	> 100 µM (inactive)	> 100 µM (inactive)
CC(C)c1cccc(C(C)C)c1N1C(=O)C(=O)C(c2nc3ccccc3o2)C(=O)C1=O	> 100 µM (inactive)	24.3 µM (inactive)	> 100 µM (inactive)	> 100 µM (inactive)	> 100 µM (inactive)	55.8 µM (inactive)	91.4 µM (inactive)	> 100 µM (inactive)	19.5 µM (inactive)	> 100 µM (inactive)	92.3 µM (inactive)	> 100 µM (inactive)	71.6 µM (inactive)	8.95 µM (inactive)
COC1=CC(O)(CC(N)=O)c2ccccc2C1=O (centres undefined)	> 100 µM (inactive)	> 100 µM (inactive)	> 100 µM (inactive)	> 100 µM (inactive)	> 100 µM (inactive)	> 100 µM (inactive)	> 100 µM (inactive)	> 100 µM (inactive)	> 100 µM (inactive)	> 100 µM (inactive)	> 100 µM (inactive)	> 100 µM (inactive)	> 100 µM (inactive)	> 100 µM (inactive)
